Assay results: US20250171461A1, “STIMULATOR OF INTERFERON GENES (STING) MODULATORS, AND COMPOSITIONS AND METHODS THEREOF” (Geode Therapeutics Inc., priority 2022, published 2025)

target: T1, human HAQ STING isoform (hSTING HAQ) (Homo sapiens, UniProt Q86WV6, G230A/H232R/R293Q/R71H); assay: IFN-β mRNA level in THP1 cells (qPCR, STING agonist cellular activity); format: cell-based; settings: compound at 3.6 μM, 2 hrs, IFNβ expression normalized against GAPDH by the 2^-ΔΔCT method, DMSO = 1.0
T1 construct: THP1 cells express the naturally occurring human HAQ STING isoform (hSTING HAQ); host or cells: THP1
T1 sequence (Q86WV6 whole entry R71H/G230A/H232R/R293Q, canonical isoform): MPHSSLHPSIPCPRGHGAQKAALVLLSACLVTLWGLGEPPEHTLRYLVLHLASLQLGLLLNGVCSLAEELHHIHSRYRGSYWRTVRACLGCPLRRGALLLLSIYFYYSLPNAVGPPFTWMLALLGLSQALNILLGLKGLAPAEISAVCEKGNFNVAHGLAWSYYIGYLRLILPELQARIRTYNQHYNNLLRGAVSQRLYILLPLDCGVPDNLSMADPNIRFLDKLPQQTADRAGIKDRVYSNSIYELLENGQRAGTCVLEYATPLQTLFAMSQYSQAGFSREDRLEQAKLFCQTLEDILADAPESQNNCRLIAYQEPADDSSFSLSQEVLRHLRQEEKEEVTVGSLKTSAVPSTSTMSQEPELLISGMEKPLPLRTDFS
Summary of the method: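 THP1 cells were seeded at 9×10^5 per well, incubated overnight, then treated with compound at 3.6 μM final (0.1% DMSO control) for 2 hrs at 37 °C. IFN-β mRNA was measured by SYBR Green qPCR, normalised to GAPDH by the 2^−ΔΔCT method, in triplicate.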

In order of rising “Relative mRNA INFβ/GAPDH THP 1” value:
1. COC(=O)c1cc(CN(Cc2cn3c4c(c(F)c(F)cc4c2=O)OCC3)[C@H]2CCCN(c3cnccn3)C2)ccn1 [Compound 88, methyl (S)-4-((((9,10-difluoro-7-oxo-2,3-dihydro-7H-[1,4]oxazino[2,3,4-ij]quinolin-6-yl)methyl)(1-(pyrazin-2-yl)piperidin-3-yl)amino)methyl)picolinate]  0.8
2. Nc1ccc(N2CCC[C@H](N(Cc3ccc(Cl)nc3)Cc3cn4c5c(c(F)c(F)cc5c3=O)OCC4)C2)cn1 [Compound 76, (S)-6-(((1-(6-aminopyridin-3-yl)piperidin-3-yl)((6-chloropyridin-3-yl)methyl)amino)methyl)-9,10-difluoro-2,3-dihydro-7H-[1,4]oxazino[2,3,4-ij]quinolin-7-one]  0.8
3. Nc1ccc(N2CCC[C@H](N(Cc3ccccc3F)Cc3cn4c5c(c(F)c(F)cc5c3=O)OCC4)C2)cn1 [Compound 77, (S)-6-(((1-(6-aminopyridin-3-yl)piperidin-3-yl)(2-fluorobenzyl)amino)methyl)-9,10-difluoro-2,3-dihydro-7H-[1,4]oxazino[2,3,4-ij]quinolin-7-one]  1.3
4. Nc1ccc(N2CCC[C@H](N(Cc3ccc(C(F)(F)F)cc3F)Cc3cn4c5c(c(F)c(F)cc5c3=O)OCC4)C2)cn1 [Compound 74, (S)-6-(((1-(6-aminopyridin-3-yl)piperidin-3-yl)(2-fluoro-4-(trifluoromethyl)benzyl)amino)methyl)-9,10-difluoro-2,3-dihydro-7H-[1,4]oxazino[2,3,4-ij]quinolin-7-one]  1.4
5. COc1cc(CN(Cc2cn3c4c(c(O)c(F)cc4c2=O)OCC3C)[C@H]2CCCN(c3ccc(N)nc3)C2)ccn1 (stereo partly drawn) [Compound 63, 6-((((S)-1-(6-aminopyridin-3-yl)piperidin-3-yl)((2-methoxypyridin-4-yl)methyl)amino)methyl)-9-fluoro-10-hydroxy-3-methyl-2H-[1,4]oxazino[2,3,4-ij]quinolin-7(3H)-one]  2.5
6. Cc1cc(CN(Cc2cn3c4c(c(F)c(F)cc4c2=O)OCC3C)[C@H]2CCCN(c3ccc(C(N)=O)nc3)C2)ccn1 (stereo partly drawn) [Compound 13, 5-((3S)-3-(((9,10-difluoro-3-methyl-7-oxo-3,7-dihydro-2H-[1,4]oxazino[2,3,4-ij]quinolin-6-yl)methyl)((2-methylpyridin-4-yl)methyl)amino)piperidin-1-yl)picolinamide]  3.6
7. COc1cc(CCN(Cc2cn3c4c(c(F)c(F)cc4c2=O)OCC3C)[C@H]2CCCN(c3ccc(N)nc3)C2)ccn1 (stereo partly drawn) [Compound 8, 6-((((S)-1-(6-aminopyridin-3-yl)piperidin-3-yl)(2-(2-methoxypyridin-4-yl)ethyl)amino)methyl)-9,10-difluoro-3-methyl-2H-[1,4]oxazino[2,3,4-ij]quinolin-7(3H)-one]  5.7
8. COc1ccc(CN(Cc2cn3c4c(c(F)c(F)cc4c2=O)OCC3)[C@H]2CCCN(c3ccc(N)nc3)C2)c(OC)c1 [Compound 73, (S)-6-(((1-(6-aminopyridin-3-yl)piperidin-3-yl)(2,4-dimethoxybenzyl)amino)methyl)-9,10-difluoro-2,3-dihydro-7H-[1,4]oxazino[2,3,4-ij]quinolin-7-one]  7.9
9. Cc1ccc(N2CCC[C@H](N(Cc3ccnc(N)c3)Cc3cn4c5c(c(F)c(F)cc5c3=O)OCC4C)C2)cn1 (stereo partly drawn) [Compound 11, 6-((((2-aminopyridin-4-yl)methyl)((S)-1-(6-methylpyridin-3-yl)piperidin-3-yl)amino)methyl)-9,10-difluoro-3-methyl-2H-[1,4]oxazino[2,3,4-ij]quinolin-7(3H)-one]  65.6
10. COc1cc(CN(Cc2cn3c4c(c(N5CCNCC5)c(F)cc4c2=O)OCC3C)[C@H]2CCCN(c3ccc(N)nc3)C2)ccn1 (stereo partly drawn) [Compound 39, 6-((((S)-1-(6-aminopyridin-3-yl)piperidin-3-yl)((2-methoxypyridin-4-yl)methyl)amino)methyl)-9-fluoro-3-methyl-10-(piperazin-1-yl)-2H-[1,4]oxazino[2,3,4-ij]quinolin-7(3H)-one]  81.3
11. Nc1ccc(N2CCC[C@H](N(Cc3ccncc3Cl)Cc3cn4c5c(c(F)c(F)cc5c3=O)OCC4)C2)cn1 [Compound 79, (S)-6-(((1-(6-aminopyridin-3-yl)piperidin-3-yl)((3-chloropyridin-4-yl)methyl)amino)methyl)-9,10-difluoro-2,3-dihydro-7H-[1,4]oxazino[2,3,4-ij]quinolin-7-one]  335.5
12. Cc1cc(CN(Cc2cn3c4c(c(F)c(F)cc4c2=O)OCC3C)[C@H]2CCCN(c3cccnc3)C2)ccn1 (stereo partly drawn) [Compound 10, 9,10-difluoro-3-methyl-6-((((2-methylpyridin-4-yl)methyl)((S)-1-(pyridin-3-yl)piperidin-3-yl)amino)methyl)-2H-[1,4]oxazino[2,3,4-ij]quinolin-7(3H)-one]  336.8
13. COc1cc(CN(Cc2cn3c4c(c(N5CCNC(C)C5)c(F)cc4c2=O)OCC3C)[C@H]2CCCN(c3ccc(N)nc3)C2)ccn1 (stereo partly drawn) [Compound 40, 6-((((S)-1-(6-aminopyridin-3-yl)piperidin-3-yl)((2-methoxypyridin-4-yl)methyl)amino)methyl)-9-fluoro-3-methyl-10-(3-methylpiperazin-1-yl)-2H-[1,4]oxazino[2,3,4-ij]quinolin-7(3H)-one]  352.8
14. COc1cc(CN(Cc2cn3c4c(c(-c5ccncc5)c(F)cc4c2=O)OCC3C)[C@H]2CCCN(c3ccc(N)nc3)C2)ccn1 (stereo partly drawn) [Compound 56, 6-((((S)-1-(6-aminopyridin-3-yl)piperidin-3-yl)((2-methoxypyridin-4-yl)methyl)amino)methyl)-9-fluoro-3-methyl-10-(pyridin-4-yl)-2H-[1,4]oxazino[2,3,4-ij]quinolin-7(3H)-one]  366.2
15. COc1cc(CN(Cc2cn3c4c(c(N5CCC6(CC5)CC(O)CO6)c(F)cc4c2=O)OCC3C)[C@H]2CCCN(c3ccc(N)nc3)C2)ccn1 (stereo partly drawn) [Compound 44, 6-((((S)-1-(6-aminopyridin-3-yl)piperidin-3-yl)((2-methoxypyridin-4-yl)methyl)amino)methyl)-9-fluoro-10-(3-hydroxy-1-oxa-8-azaspiro[4.5]decan-8-yl)-3-methyl-2H-[1,4]oxazino[2,3,4-ij]quinolin-7(3H)-one]  642.4
16. COc1cc(CN(Cc2cn3c4c(c(C5=CCSCC5)c(F)cc4c2=O)OCC3C)[C@H]2CCCN(c3ccc(N)nc3)C2)ccn1 (stereo partly drawn) [Compound 58, 6-((((S)-1-(6-aminopyridin-3-yl)piperidin-3-yl)((2-methoxypyridin-4-yl)methyl)amino)methyl)-10-(3,6-dihydro-2H-thiopyran-4-yl)-9-fluoro-3-methyl-2H-[1,4]oxazino[2,3,4-ij]quinolin-7(3H)-one]  688.4
17. COc1cc(CN(Cc2cn3c4c(c(F)c(F)cc4c2=O)OCCC3)[C@H]2CCCN(c3ccc(N)nc3)C2)ccn1 [Compound 47, (S)-7-(((1-(6-aminopyridin-3-yl)piperidin-3-yl)((2-methoxypyridin-4-yl)methyl)amino)methyl)-10,11-difluoro-3,4-dihydro-[1,4]oxazepino[2,3,4-ij]quinolin-8(2H)-one]  710.4
18. COc1cc(CN(Cc2cn3c4c(c(N5CCc6ccccc6C5)c(F)cc4c2=O)OCC3C)[C@H]2CCCN(c3ccc(N)nc3)C2)ccn1 (stereo partly drawn) [Compound 33, 6-((((S)-1-(6-aminopyridin-3-yl)piperidin-3-yl)((2-methoxypyridin-4-yl)methyl)amino)methyl)-10-(3,4-dihydroisoquinolin-2(1H)-yl)-9-fluoro-3-methyl-2H-[1,4]oxazino[2,3,4-ij]quinolin-7(3H)-one]  849.2
19. CC1COc2c(F)c(F)cc3c(=O)c(CN(Cc4ccncc4)[C@H]4CCCN(c5ccc(N)nc5)C4)cn1c23 (stereo partly drawn) [Compound 2, 6-((((S)-1-(6-aminopyridin-3-yl)piperidin-3-yl)(pyridin-4-ylmethyl)amino)methyl)-9,10-difluoro-3-methyl-2H-[1,4]oxazino[2,3,4-ij]quinolin-7(3H)-one]  1261.9
20. COc1cc(CN(Cc2cn3c4c(c(N5CCCCC5)c(F)cc4c2=O)OCC3C)[C@H]2CCCN(c3ccc(N)nc3)C2)ccn1 (stereo partly drawn) [Compound 28, 6-((((S)-1-(6-aminopyridin-3-yl)piperidin-3-yl)((2-methoxypyridin-4-yl)methyl)amino)methyl)-9-fluoro-3-methyl-10-(piperidin-1-yl)-2H-[1,4]oxazino[2,3,4-ij]quinolin-7(3H)-one]  1530.0
21. COc1cc(CN(Cc2cn3c4c(c(F)c(F)cc4c2=O)OC(C)(C)C3)[C@H]2CCCN(c3ccc(N)nc3)C2)ccn1 [Compound 50, (S)-6-(((1-(6-aminopyridin-3-yl)piperidin-3-yl)((2-methoxypyridin-4-yl)methyl)amino)methyl)-9,10-difluoro-2,2-dimethyl-2H-[1,4]oxazino[2,3,4-ij]quinolin-7(3H)-one]  6723.5
22. COc1cc(CN(Cc2cn3c4c(c(N5CCCCC5C)c(F)cc4c2=O)OCC3C)[C@H]2CCCN(c3ccc(N)nc3)C2)ccn1 (stereo partly drawn) [Compound 37, 6-((((S)-1-(6-aminopyridin-3-yl)piperidin-3-yl)((2-methoxypyridin-4-yl)methyl)amino)methyl)-9-fluoro-3-methyl-10-(2-methylpiperidin-1-yl)-2H-[1,4]oxazino[2,3,4-ij]quinolin-7(3H)-one]  6829.2
